# Results as given in ChEMBL document CHEMBL3885861, “Open TG-GATES”.
# Species on record: Rattus norvegicus
# Assay: Open TG-GATES - Regimen: Single
# Format: toxicity, organism-based, Sprague-Dawley
# Parameters: regimen Single, gender Male, age 6 weeks
# Details: in vivo, po, 30 mg/kg, route gavage, dose level Low; for APTT / Bas / Eos / Fbg / Hb / Ht / Lym / MCH / MCHC / MCV / Mono / Neu / PT / Plat / RBC / Ret / WBC: tissue Blood; for KIDNEY_L / KIDNEY_R / KIDNEY_TOTAL: tissue Kidney; for LIVER: tissue Liver; for A/G / ALP / ALT / AST / BUN / CRE / Ca / Cl / DBIL / GLC / IP / K / LDH / Na / PL / RALB / TBIL / TC / TG / TP / gamma-GTP: tissue Plasma
smiles,measurement,setting,value
ClC(Cl)(Cl)Cl [CARBON TETRACHLORIDE],TERMINAL_BW,3 h,206.6 g
same,APTT,3 h,16.5 s
same,Bas,3 h,0%
same,Eos,3 h,0.8%
same,Fbg,3 h,259.6 mg/dL
same,Hb,3 h,13 g/dL
same,Ht,3 h,37.5%
same,Lym,3 h,76.6%
same,MCH,3 h,21.2 pg
same,MCHC,3 h,34.6%
same,MCV,3 h,61.4 fL
same,Mono,3 h,3.4%
same,Neu,3 h,19%
same,PT,3 h,12.3 s
same,Plat,3 h,127.9 x10_4/uL
same,RBC,3 h,610.8 x10_4/ul
same,Ret,3 h,8.6%
same,WBC,3 h,95.4 x10_2/uL
same,KIDNEY_L,3 h,0.9 g
same,KIDNEY_R,3 h,0.9 g
same,KIDNEY_TOTAL,3 h,1.9 g
same,LIVER,3 h,9.7 g
same,A/G,3 h,1.6
same,ALP,3 h,1090.2 IU/L
same,ALT,3 h,39.6 IU/L
same,AST,3 h,67.4 IU/L
same,BUN,3 h,11.8 mg/dL
same,CRE,3 h,0.4 mg/dL
same,Ca,3 h,10.9 mg/dL
same,Cl,3 h,104 meq/L
same,DBIL,3 h,0.1 mg/dL
same,GLC,3 h,192.6 mg/dL
same,IP,3 h,9.8 mg/dL
same,K,3 h,3.8 meq/L
same,LDH,3 h,198.8 IU/L
same,Na,3 h,140.2 meq/L
same,PL,3 h,169.2 mg/dL
same,RALB,3 h,3.4 g/dL
same,TBIL,3 h,0.2 mg/dL
same,TC,3 h,86 mg/dL
same,TG,3 h,81.2 mg/dL
same,TP,3 h,5.6 g/dL
same,gamma-GTP,3 h,1.4 IU/L
same,TERMINAL_BW,6 h,205.6 g
same,APTT,6 h,17.9 s
same,Bas,6 h,0%
same,Eos,6 h,1%
same,Fbg,6 h,242 mg/dL
same,Hb,6 h,13.1 g/dL
same,Ht,6 h,37.4%
same,Lym,6 h,72.8%
same,MCH,6 h,22 pg
same,MCHC,6 h,34.9%
same,MCV,6 h,63.1 fL
same,Mono,6 h,2.6%
same,Neu,6 h,22.8%
same,PT,6 h,12.7 s
same,Plat,6 h,134.6 x10_4/uL
same,RBC,6 h,593.6 x10_4/ul
same,Ret,6 h,8.6%
same,WBC,6 h,78.1 x10_2/uL
same,KIDNEY_L,6 h,0.9 g
same,KIDNEY_R,6 h,0.9 g
same,KIDNEY_TOTAL,6 h,1.8 g
same,LIVER,6 h,9.4 g
same,A/G,6 h,1.7
same,ALP,6 h,1051 IU/L
same,ALT,6 h,29.4 IU/L
same,AST,6 h,63.8 IU/L
same,BUN,6 h,10.2 mg/dL
same,CRE,6 h,0.4 mg/dL
same,Ca,6 h,10.6 mg/dL
same,Cl,6 h,104.4 meq/L
same,DBIL,6 h,0.1 mg/dL
same,GLC,6 h,195 mg/dL
same,IP,6 h,9.4 mg/dL
same,K,6 h,4.1 meq/L
same,LDH,6 h,221.2 IU/L
same,Na,6 h,139.6 meq/L
same,PL,6 h,159 mg/dL
same,RALB,6 h,3.5 g/dL
same,TBIL,6 h,0.2 mg/dL
same,TC,6 h,79 mg/dL
same,TG,6 h,91.2 mg/dL
same,TP,6 h,5.6 g/dL
same,gamma-GTP,6 h,1 IU/L
same,TERMINAL_BW,9 h,201.5 g
same,APTT,9 h,17.2 s
same,Bas,9 h,0%
same,Eos,9 h,0.8%
same,Fbg,9 h,229.4 mg/dL
same,Hb,9 h,12.7 g/dL
same,Ht,9 h,36.5%
same,Lym,9 h,74%
same,MCH,9 h,21.4 pg
same,MCHC,9 h,34.8%
same,MCV,9 h,61.6 fL
same,Mono,9 h,2.2%
same,Neu,9 h,22.6%
same,PT,9 h,12.5 s
same,Plat,9 h,126.6 x10_4/uL
same,RBC,9 h,593.2 x10_4/ul
same,Ret,9 h,9.1%
same,WBC,9 h,76.5 x10_2/uL
same,KIDNEY_L,9 h,0.9 g
same,KIDNEY_R,9 h,0.9 g
same,KIDNEY_TOTAL,9 h,1.8 g
same,LIVER,9 h,8.6 g
same,A/G,9 h,1.6
same,ALP,9 h,1042.2 IU/L
same,ALT,9 h,29.8 IU/L
same,AST,9 h,58 IU/L
same,BUN,9 h,10 mg/dL
same,CRE,9 h,0.4 mg/dL
same,Ca,9 h,10.4 mg/dL
same,Cl,9 h,103.8 meq/L
same,DBIL,9 h,0.09 mg/dL
same,GLC,9 h,196.8 mg/dL
same,IP,9 h,10.6 mg/dL
same,K,9 h,3.6 meq/L
same,LDH,9 h,174 IU/L
same,Na,9 h,140.2 meq/L
same,PL,9 h,150.8 mg/dL
same,RALB,9 h,3.3 g/dL
same,TBIL,9 h,0.2 mg/dL
same,TC,9 h,75.8 mg/dL
same,TG,9 h,57.2 mg/dL
same,TP,9 h,5.4 g/dL
same,gamma-GTP,9 h,0.8 IU/L
same,TERMINAL_BW,24 h,211.3 g
same,APTT,24 h,19.1 s
same,Bas,24 h,0%
same,Eos,24 h,0.8%
same,Fbg,24 h,229.6 mg/dL
same,Hb,24 h,13.6 g/dL
same,Ht,24 h,38.8%
same,Lym,24 h,84.4%
same,MCH,24 h,22.4 pg
same,MCHC,24 h,35%
same,MCV,24 h,64 fL
same,Mono,24 h,2.6%
same,Neu,24 h,11.6%
same,PT,24 h,12.1 s
same,Plat,24 h,132.2 x10_4/uL
same,RBC,24 h,606.4 x10_4/ul
same,Ret,24 h,8%
same,WBC,24 h,101.3 x10_2/uL
same,KIDNEY_L,24 h,1 g
same,KIDNEY_R,24 h,1 g
same,KIDNEY_TOTAL,24 h,2 g
same,LIVER,24 h,10.4 g
same,A/G,24 h,1.6
same,ALP,24 h,1115.2 IU/L
same,ALT,24 h,42.4 IU/L
same,AST,24 h,69.6 IU/L
same,BUN,24 h,14.8 mg/dL
same,CRE,24 h,0.4 mg/dL
same,Ca,24 h,10.7 mg/dL
same,Cl,24 h,103.8 meq/L
same,DBIL,24 h,0.07 mg/dL
same,GLC,24 h,202 mg/dL
same,IP,24 h,7.7 mg/dL
same,K,24 h,3.8 meq/L
same,LDH,24 h,188.8 IU/L
same,Na,24 h,140.6 meq/L
same,PL,24 h,155.2 mg/dL
same,RALB,24 h,3.5 g/dL
same,TBIL,24 h,0.1 mg/dL
same,TC,24 h,81.2 mg/dL
same,TG,24 h,61.8 mg/dL
same,TP,24 h,5.7 g/dL
same,gamma-GTP,24 h,1.4 IU/L
